± gives the expanded uncertainty stated by the source.
Assays:
[1] = molar heat capacity at constant pressure; settings: 101.33 kPa, Vacuum adiabatic calorimetry
[2] = molar heat capacity at saturation pressure; settings: Crystal, Vacuum adiabatic calorimetry

## c1ccc2nc3ccccc3nc2c1 [phenazine]
[1]; 5 K, Crystal
  molar heat capacity at constant pressure: 0.38 ± 0.02 J/K/mol
[1]; 10 K, Crystal
  molar heat capacity at constant pressure: 2.76 ± 0.03 J/K/mol
[1]; 20 K, Crystal
  molar heat capacity at constant pressure: 13.34 ± 0.091 J/K/mol
[1]; 30 K, Crystal
  molar heat capacity at constant pressure: 25.08 ± 0.091 J/K/mol
[1]; 40 K, Crystal
  molar heat capacity at constant pressure: 35.19 ± 0.11 J/K/mol
[1]; 50 K, Crystal
  molar heat capacity at constant pressure: 43.5 ± 0.12 J/K/mol
[1]; 60 K, Crystal
  molar heat capacity at constant pressure: 50.49 ± 0.14 J/K/mol
[1]; 70 K, Crystal
  molar heat capacity at constant pressure: 56.66 ± 0.16 J/K/mol
[1]; 80 K, Crystal
  molar heat capacity at constant pressure: 62.3 ± 0.17 J/K/mol
[1]; 90 K, Crystal
  molar heat capacity at constant pressure: 67.8 ± 0.27 J/K/mol
[1]; 100 K, Crystal
  molar heat capacity at constant pressure: 73.23 ± 0.27 J/K/mol
[1]; 120 K, Crystal
  molar heat capacity at constant pressure: 84.23 ± 0.28 J/K/mol
[1]; 140 K, Crystal
  molar heat capacity at constant pressure: 95.77 ± 0.3 J/K/mol
[1]; 160 K, Crystal
  molar heat capacity at constant pressure: 107.87 ± 0.31 J/K/mol
[1]; 180 K, Crystal
  molar heat capacity at constant pressure: 120.51 ± 0.32 J/K/mol
[1]; 200 K, Crystal
  molar heat capacity at constant pressure: 133.66 ± 0.33 J/K/mol
[1]; 220 K, Crystal
  molar heat capacity at constant pressure: 147.13 ± 0.35 J/K/mol
[1]; 240 K, Crystal
  molar heat capacity at constant pressure: 160.98 ± 0.36 J/K/mol
[1]; 260 K, Crystal
  molar heat capacity at constant pressure: 175.01 ± 0.37 J/K/mol
[1]; 280 K, Crystal
  molar heat capacity at constant pressure: 188.99 ± 0.39 J/K/mol
[1]; 298.15 K, Crystal
  molar heat capacity at constant pressure: 201.63 ± 0.4 J/K/mol
[1]; 300 K, Crystal
  molar heat capacity at constant pressure: 202.93 ± 0.4 J/K/mol
[1]; 320 K, Crystal
  molar heat capacity at constant pressure: 216.89 ± 0.42 J/K/mol
[1]; 340 K, Crystal
  molar heat capacity at constant pressure: 230.56 ± 0.43 J/K/mol
[1]; 360 K, Crystal
  molar heat capacity at constant pressure: 244.06 ± 0.44 J/K/mol
[1]; 380 K, Crystal
  molar heat capacity at constant pressure: 257.36 ± 0.46 J/K/mol
[1]; 400 K, Crystal
  molar heat capacity at constant pressure: 270.46 ± 0.47 J/K/mol
[1]; 420 K, Crystal
  molar heat capacity at constant pressure: 283.41 ± 0.48 J/K/mol
[1]; 440 K, Crystal
  molar heat capacity at constant pressure: 296.01 ± 0.5 J/K/mol
[1]; 447.91 K, Crystal
  molar heat capacity at constant pressure: 300.87 ± 0.5 J/K/mol
[1]; 447.91 K, Liquid
  molar heat capacity at constant pressure: 331.96 ± 0.53 J/K/mol
[1]; 460 K, Liquid
  molar heat capacity at constant pressure: 337 ± 0.54 J/K/mol
[1]; 480 K, Liquid
  molar heat capacity at constant pressure: 345.14 ± 0.55 J/K/mol
[1]; 500 K, Liquid
  molar heat capacity at constant pressure: 353.07 ± 0.56 J/K/mol
[1]; 520 K, Liquid
  molar heat capacity at constant pressure: 360.67 ± 0.56 J/K/mol
[2]; 6.135 K
  molar heat capacity: 0.71 ± 0.02 J/K/mol
[2]; 7.091 K
  molar heat capacity: 1.09 ± 0.02 J/K/mol
[2]; 8.146 K
  molar heat capacity: 1.57 ± 0.02 J/K/mol
[2]; 9.073 K
  molar heat capacity: 2.09 ± 0.03 J/K/mol
[2]; 9.999 K
  molar heat capacity: 2.77 ± 0.03 J/K/mol
[2]; 11.1 K
  molar heat capacity: 3.68 ± 0.04 J/K/mol
[2]; 12.32 K
  molar heat capacity: 4.78 ± 0.05 J/K/mol
[2]; 13.68 K
  molar heat capacity: 6.14 ± 0.06 J/K/mol
[2]; 15.19 K
  molar heat capacity: 7.78 ± 0.07 J/K/mol
[2]; 16.85 K
  molar heat capacity: 9.645 ± 0.07 J/K/mol
[2]; 18.69 K
  molar heat capacity: 11.81 ± 0.083 J/K/mol
[2]; 20.75 K
  molar heat capacity: 14.23 ± 0.091 J/K/mol
[2]; 23.04 K
  molar heat capacity: 16.99 ± 0.1 J/K/mol
[2]; 25.58 K
  molar heat capacity: 20 ± 0.1 J/K/mol
[2]; 28.4 K
  molar heat capacity: 23.28 ± 0.1 J/K/mol
[2]; 31.54 K
  molar heat capacity: 26.77 ± 0.1 J/K/mol
[2]; 35.04 K
  molar heat capacity: 30.43 ± 0.1 J/K/mol
[2]; 38.95 K
  molar heat capacity: 34.21 ± 0.11 J/K/mol
[2]; 43.3 K
  molar heat capacity: 38.1 ± 0.12 J/K/mol
[2]; 48.12 K
  molar heat capacity: 42.05 ± 0.12 J/K/mol
[2]; 52.7 K
  molar heat capacity: 45.41 ± 0.13 J/K/mol
[2]; 53.49 K
  molar heat capacity: 46.07 ± 0.13 J/K/mol
[2]; 57.63 K
  molar heat capacity: 48.91 ± 0.14 J/K/mol
[2]; 59.46 K
  molar heat capacity: 50.14 ± 0.14 J/K/mol
[2]; 63.45 K
  molar heat capacity: 52.68 ± 0.15 J/K/mol
[2]; 69.82 K
  molar heat capacity: 56.56 ± 0.15 J/K/mol
[2]; 76.91 K
  molar heat capacity: 60.58 ± 0.16 J/K/mol
[2]; 84.71 K
  molar heat capacity: 64.9 ± 0.17 J/K/mol
[2]; 93.41 K
  molar heat capacity: 69.64 ± 0.27 J/K/mol
[2]; 102.69 K
  molar heat capacity: 74.69 ± 0.27 J/K/mol

Source: the NIST ThermoML archive (doi:10.1016/j.jct.2009.11.010)
